Data from ChEMBL document CHEMBL3885881, “DrugMatrix”.

Species: Rattus norvegicus
Test: DrugMatrix - Regimen: Daily Repeat
Assay type: toxicity, organism-based, Sprague-Dawley
Parameters: regimen Daily Repeat, gender Male, age 6-8 weeks
Conditions: in vivo, po, route oral GAVAGE, vehicle .5 % CMC; for ABSOLUTE BASOPHIL / ABSOLUTE EOSINOPHIL / ABSOLUTE LYMPHOCYTE / ABSOLUTE MONOCYTE / ABSOLUTE SEGMENTED NEUTROPHIL / BASOPHIL / EOSINOPHIL / ERYTHROCYTE COUNT / HEMATOCRIT / HEMOGLOBIN / LEUKOCYTE COUNT / LYMPHOCYTE / MEAN CORPUSCULAR HEMOGLOBIN / MEAN CORPUSCULAR HEMOGLOBIN CONCENTRATION / MEAN CORPUSCULAR VOLUME / MONOCYTE / NEUTROPHIL / NUCLEATED RED BLOOD CELLS / PLATELET COUNT: tissue Blood; for ALANINE AMINOTRANSFERASE / ALBUMIN / ALKALINE PHOSPHATASE / ASPARTATE AMINOTRANSFERASE / BLOOD UREA NITROGEN / CARBON DIOXIDE / CHLORIDE / CHOLESTEROL / CREATINE PHOSPHOKINASE / CREATININE / GLUCOSE / LACTATE DEHYDROGENASE / LIPASE / PHOSPHORUS / POTASSIUM / SODIUM / TOTAL BILIRUBIN / TOTAL PROTEIN / URIC ACID: tissue Plasma
[1] = 30 mg/kg, 72 h, dose level Low, time 3 day
[2] = 30 mg/kg, 120 h, dose level Low, time 5 day
[3] = 600 mg/kg, 72 h, dose level High, time 3 day
[4] = 600 mg/kg, 120 h, dose level High, time 5 day

In the case of Cc1c(OCC(F)(F)F)ccnc1C[S+]([O-])c1nc2ccccc2[nH]1 (configuration not stated) [LANSOPRAZOLE], the “ABSOLUTE BASOPHIL” value [1] was 0 CELLS/uL, the “ABSOLUTE EOSINOPHIL” value [1] was 38 CELLS/uL and the “ABSOLUTE LYMPHOCYTE” value [1] was 11302.33 CELLS/uL. For the same compound, the “ABSOLUTE MONOCYTE” value [1] was 38 CELLS/uL, the “ABSOLUTE SEGMENTED NEUTROPHIL” value [1] was 588.33 CELLS/uL and the BASOPHIL [1] was 0%. The EOSINOPHIL [1] was 0.33%, the “ERYTHROCYTE COUNT” value [1] was 5.49 x10E6/uL and the HEMATOCRIT [1] was 34.33%. For the same compound, the HEMOGLOBIN [1] was 12.9 G/DL, the “LEUKOCYTE COUNT” value [1] was 11.97 x10E3/uL and the LYMPHOCYTE [1] was 94.33%. For the same compound, the “MEAN CORPUSCULAR HEMOGLOBIN” value [1] was 23.47 pg, the “MEAN CORPUSCULAR HEMOGLOBIN CONCENTRATION” value [1] was 37.53 G/DL and the “MEAN CORPUSCULAR VOLUME” value [1] was 62.53 fL. For the same compound, the MONOCYTE [1] was 0.33%, the NEUTROPHIL [1] was 5% and the “NUCLEATED RED BLOOD CELLS” value [1] was 0 /100WBC. For the same compound, the “PLATELET COUNT” value [1] was 1374 x10E3/uL, the “ALANINE AMINOTRANSFERASE” value [1] was 48.67 u/L and the ALBUMIN [1] was 4.03 G/DL. For the same compound, the “ALKALINE PHOSPHATASE” value [1] was 333 u/L, the “ASPARTATE AMINOTRANSFERASE” value [1] was 84.33 u/L and the “BLOOD UREA NITROGEN” value [1] was 13.67 mg/dL. The “CARBON DIOXIDE” value [1] was 25.33 mmol/L, the CHLORIDE [1] was 103 MEQ/L and the CHOLESTEROL [1] was 81.33 mg/dL. For the same compound, the “CREATINE PHOSPHOKINASE” value [1] was 302.33 u/L, the CREATININE [1] was 0.28 mg/dL and the GLUCOSE [1] was 162 mg/dL. For the same compound, the “LACTATE DEHYDROGENASE” value [1] was 455.33 u/L, the LIPASE [1] was 12 u/L and the PHOSPHORUS [1] was 14.17 mg/dL. For the same compound, the POTASSIUM [1] was 6.71 MEQ/L, the SODIUM [1] was 146.4 MEQ/L and the “TOTAL BILIRUBIN” value [1] was 0.17 mg/dL. For the same compound, the “TOTAL PROTEIN” value [1] was 5.57 G/DL, the “URIC ACID” value [1] was 1.93 mg/dL and the “ABSOLUTE BASOPHIL” value [2] was 0 CELLS/uL. The “ABSOLUTE EOSINOPHIL” value [2] was 0 CELLS/uL, the “ABSOLUTE LYMPHOCYTE” value [2] was 12566 CELLS/uL and the “ABSOLUTE MONOCYTE” value [2] was 465.33 CELLS/uL. For the same compound, the “ABSOLUTE SEGMENTED NEUTROPHIL” value [2] was 1302 CELLS/uL, the BASOPHIL [2] was 0% and the EOSINOPHIL [2] was 0%. The “ERYTHROCYTE COUNT” value [2] was 5.54 x10E6/uL, the HEMATOCRIT [2] was 36.83% and the HEMOGLOBIN [2] was 13.67 G/DL. The “LEUKOCYTE COUNT” value [2] was 14.33 x10E3/uL, the LYMPHOCYTE [2] was 87.67% and the “MEAN CORPUSCULAR HEMOGLOBIN” value [2] was 24.73 pg. For the same compound, the “MEAN CORPUSCULAR HEMOGLOBIN CONCENTRATION” value [2] was 37.17 G/DL, the “MEAN CORPUSCULAR VOLUME” value [2] was 66.5 fL and the MONOCYTE [2] was 3.33%. For the same compound, the NEUTROPHIL [2] was 9%, the “NUCLEATED RED BLOOD CELLS” value [2] was 0 /100WBC and the “PLATELET COUNT” value [2] was 1375.67 x10E3/uL. For the same compound, the “ALANINE AMINOTRANSFERASE” value [2] was 52.33 u/L, the ALBUMIN [2] was 4.3 G/DL and the “ALKALINE PHOSPHATASE” value [2] was 288.67 u/L. For the same compound, the “ASPARTATE AMINOTRANSFERASE” value [2] was 81 u/L, the “BLOOD UREA NITROGEN” value [2] was 16.33 mg/dL and the “CARBON DIOXIDE” value [2] was 22.33 mmol/L. The CHLORIDE [2] was 103.67 MEQ/L, the CHOLESTEROL [2] was 82 mg/dL and the “CREATINE PHOSPHOKINASE” value [2] was 222.67 u/L. For the same compound, the CREATININE [2] was 0.33 mg/dL, the GLUCOSE [2] was 147 mg/dL and the “LACTATE DEHYDROGENASE” value [2] was 157.67 u/L. For the same compound, the LIPASE [2] was 13 u/L, the PHOSPHORUS [2] was 12.33 mg/dL and the POTASSIUM [2] was 7.1 MEQ/L. For the same compound, the SODIUM [2] was 147.6 MEQ/L, the “TOTAL BILIRUBIN” value [2] was 0.2 mg/dL and the “TOTAL PROTEIN” value [2] was 6.07 G/DL. For the same compound, the “URIC ACID” value [2] was 1.6 mg/dL, the “ABSOLUTE BASOPHIL” value [3] was 0 CELLS/uL and the “ABSOLUTE EOSINOPHIL” value [3] was 0 CELLS/uL. The “ABSOLUTE LYMPHOCYTE” value [3] was 13053.67 CELLS/uL, the “ABSOLUTE MONOCYTE” value [3] was 222.67 CELLS/uL and the “ABSOLUTE SEGMENTED NEUTROPHIL” value [3] was 690.33 CELLS/uL. The BASOPHIL [3] was 0%, the EOSINOPHIL [3] was 0% and the “ERYTHROCYTE COUNT” value [3] was 5.81 x10E6/uL. The HEMATOCRIT [3] was 37.37%, the HEMOGLOBIN [3] was 13.57 G/DL and the “LEUKOCYTE COUNT” value [3] was 13.97 x10E3/uL. The LYMPHOCYTE [3] was 93.67%, the “MEAN CORPUSCULAR HEMOGLOBIN” value [3] was 23.33 pg and the “MEAN CORPUSCULAR HEMOGLOBIN CONCENTRATION” value [3] was 36.3 G/DL. For the same compound, the “MEAN CORPUSCULAR VOLUME” value [3] was 64.3 fL, the MONOCYTE [3] was 1.33% and the NEUTROPHIL [3] was 5%. For the same compound, the “NUCLEATED RED BLOOD CELLS” value [3] was 0.33 /100WBC, the “PLATELET COUNT” value [3] was 1408 x10E3/uL and the “ALANINE AMINOTRANSFERASE” value [3] was 39 u/L. The ALBUMIN [3] was 4.1 G/DL, the “ALKALINE PHOSPHATASE” value [3] was 387.33 u/L and the “ASPARTATE AMINOTRANSFERASE” value [3] was 76.67 u/L. The “BLOOD UREA NITROGEN” value [3] was 16.33 mg/dL, the “CARBON DIOXIDE” value [3] was 28 mmol/L and the CHLORIDE [3] was 104.67 MEQ/L. For the same compound, the CHOLESTEROL [3] was 55.33 mg/dL, the “CREATINE PHOSPHOKINASE” value [3] was 222 u/L and the CREATININE [3] was 0.18 mg/dL. For the same compound, the GLUCOSE [3] was 159 mg/dL, the “LACTATE DEHYDROGENASE” value [3] was 91.33 u/L and the LIPASE [3] was 9.67 u/L. For the same compound, the PHOSPHORUS [3] was 12.23 mg/dL, the POTASSIUM [3] was 6.7 MEQ/L and the SODIUM [3] was 147.6 MEQ/L. The “TOTAL BILIRUBIN” value [3] was 0.13 mg/dL, the “TOTAL PROTEIN” value [3] was 5.53 G/DL and the “URIC ACID” value [3] was 1.8 mg/dL. For the same compound, the “ABSOLUTE BASOPHIL” value [4] was 0 CELLS/uL, the “ABSOLUTE EOSINOPHIL” value [4] was 0 CELLS/uL and the “ABSOLUTE LYMPHOCYTE” value [4] was 15467 CELLS/uL. The “ABSOLUTE MONOCYTE” value [4] was 599 CELLS/uL, the “ABSOLUTE SEGMENTED NEUTROPHIL” value [4] was 1467.33 CELLS/uL and the BASOPHIL [4] was 0%. The EOSINOPHIL [4] was 0%, the “ERYTHROCYTE COUNT” value [4] was 5.82 x10E6/uL and the HEMATOCRIT [4] was 35.9%. For the same compound, the HEMOGLOBIN [4] was 13.57 G/DL, the “LEUKOCYTE COUNT” value [4] was 17.53 x10E3/uL and the LYMPHOCYTE [4] was 87.67%. The “MEAN CORPUSCULAR HEMOGLOBIN” value [4] was 23.33 pg, the “MEAN CORPUSCULAR HEMOGLOBIN CONCENTRATION” value [4] was 37.8 G/DL and the “MEAN CORPUSCULAR VOLUME” value [4] was 61.7 fL. The MONOCYTE [4] was 3.33%, the NEUTROPHIL [4] was 9% and the “NUCLEATED RED BLOOD CELLS” value [4] was 0.33 /100WBC. The “PLATELET COUNT” value [4] was 1179.67 x10E3/uL, the “ALANINE AMINOTRANSFERASE” value [4] was 36 u/L and the ALBUMIN [4] was 3.93 G/DL. For the same compound, the “ALKALINE PHOSPHATASE” value [4] was 272.33 u/L, the “ASPARTATE AMINOTRANSFERASE” value [4] was 83.33 u/L and the “BLOOD UREA NITROGEN” value [4] was 16.67 mg/dL. The “CARBON DIOXIDE” value [4] was 28.33 mmol/L, the CHLORIDE [4] was 106 MEQ/L and the CHOLESTEROL [4] was 51.33 mg/dL. The “CREATINE PHOSPHOKINASE” value [4] was 144.33 u/L, the CREATININE [4] was 0.17 mg/dL and the GLUCOSE [4] was 138.67 mg/dL. For the same compound, the “LACTATE DEHYDROGENASE” value [4] was 71 u/L, the LIPASE [4] was 10.67 u/L and the PHOSPHORUS [4] was 10.43 mg/dL. For the same compound, the POTASSIUM [4] was 6.81 MEQ/L, the SODIUM [4] was 148.63 MEQ/L and the “TOTAL BILIRUBIN” value [4] was 0.17 mg/dL. The “TOTAL PROTEIN” value [4] was 5.73 G/DL and the “URIC ACID” value [4] was 1.27 mg/dL.
